{"source": "patent US20180028553A1", "about": "“USE OF STING AGONIST AS CANCER TREATMENT” (The University of Chicago, priority 2013, published 2018)", "key": {"hSTING^REF": {"molecular_target": "T1, hSTING^REF (Homo sapiens, UniProt Q86WV6)", "T1 construct": "expressing each of the full length hSTING variants; expressed in transfected cells; host or cells: HEK 293T (deficient in endogenous STING), MSCV2.2 retroviral transduction", "T1 sequence (Q86WV6 whole entry)": "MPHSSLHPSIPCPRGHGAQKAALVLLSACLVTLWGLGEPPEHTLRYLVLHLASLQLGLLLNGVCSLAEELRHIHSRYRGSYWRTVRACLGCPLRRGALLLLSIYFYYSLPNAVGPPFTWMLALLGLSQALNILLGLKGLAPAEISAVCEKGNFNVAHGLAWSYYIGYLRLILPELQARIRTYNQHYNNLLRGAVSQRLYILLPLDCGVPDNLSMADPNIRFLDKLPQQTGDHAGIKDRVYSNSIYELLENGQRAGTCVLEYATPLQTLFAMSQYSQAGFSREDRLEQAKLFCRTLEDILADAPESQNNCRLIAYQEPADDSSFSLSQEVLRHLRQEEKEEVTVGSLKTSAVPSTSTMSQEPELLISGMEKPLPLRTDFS", "test": "IFN-β luciferase reporter assay in HEK 293T cells expressing hSTING REF", "assay_type": "cell-based", "conditions": "10 μM CDN, 6 hours", "procedure": "(§1) Luciferase Assay. […] After 20 min, stimulation mixtures were removed and normal media was added. After a total of 6 hours, cell lysates were prepared and reporter gene activity measured using the Dual Luciferase Assay System (Promega) on a Spectramax M3 luminometer."}, "[1]": {"test_system": "CT26 rejection antigen AH1", "test": "IFN-γ ELISPOT against AH1 in CT26-bearing mice", "assay_type": "in vivo, mouse", "conditions": "21 days post-implantation", "procedure": "IFN-γ ELISPOT and SIY-pentamer staining. […] […] Spots were developed using the BD mouse IFN-γ kit according to the manufacturer's instructions and the number of spots was measured using an Immunospot Series 3 Analyzer and analyzed using ImmunoSpot software (Cellular Technology Ltd). For SIY-pentamer staining, splenocytes were preincubated for 15 min with anti-CD16/32 monoclonal antibody (93) to block potential nonspecific binding, and labeled with PE-MHC class I pentamer (Proimmune) consisting of murine H-2K^b complexed to […] (SIY) peptide, anti-TCRβ-AF700 (H57-597), anti-CD8-Pacific Blue (53-6.7), anti-CD4-Pacific Orange (RM4-5) (all antibodies from BioLegend) and the Fixable Viability Dye eFluor 450 (eBioscience). Stained cells were analyzed using LSR II cytometer with FACSDiva software (BD). Data analysis was conducted with FlowJo software (Tree Star)."}, "[2]": {"test_system": "five hSTING alleles (WT, REF, HAQ, AQ and Q)", "test": "IFN-β luciferase reporter assay in HEK 293T cells expressing hSTING variants", "assay_type": "cell-based, human", "conditions": "10 μM CDN, 6 hours", "procedure": "as §1"}, "CT26 colon carcinoma": {"test_system": "CT26 colon carcinoma", "test": "Intratumoral treatment of CT26 colon carcinoma", "assay_type": "in vivo, mouse", "procedure": "(§2) In vivo tumor experiments. 10^6 of B16-SIY tumor cells, 5×10^4 B16.F10 tumor cells, 10^5 4T1 and CT26, or 10^6 other tumor cells were injected s.c. in 100 μl DPBS or HBSS on the right flank of mice. Following tumor implantation, mice were randomized into treatment groups. […] Measurements of tumors were performed twice per week using calipers, and the tumor volume was calculated with the formula: V=(length×width^2)/2. In some experiments, tumor-free survivors were rechallenged with tumor cells on the opposite flank several weeks after the injection of the primary tumor. Naïve mice were used as controls. For the contralateral experiments, mice were implanted on both flanks and only one tumor was treated. For the B16 melanoma lung metastasis experiments, mice were implanted on the flank with 5×10^4 cells B16.F10 on day 0, and then injected intravenously with 1×10^5 cells on day 7. Lungs were harvested on day 28. Administration of compounds, measurements of tumors and counting of lung tumors were performed in a blinded fashion."}, "4T-1 tumors": {"test_system": "4T-1 tumors", "test": "Intratumoral treatment of 4T-1 tumors", "assay_type": "in vivo, mouse", "procedure": "as §2"}, "[3]": {"test_system": "murine bone marrow macrophages (BMMs)", "test": "qRT-PCR of IFN-β and cytokines in bone marrow macrophages stimulated with CDNs", "assay_type": "cell-based, mouse", "conditions": "WT C57BL/6 BMMs, 5 μM, 6 hours; compared to ML-cGAMP, poly I:C and LPS on a molar equivalent basis", "procedure": "WT BMM were stimulated with CDN at 5 μM in HBSS with the addition of Effectene (Qiagen) transfection reagent (per kit protocol). […] After a 6 hr incubation, cells were harvested and assessed by real-time qRT-PCR for gene expression of IFN-β1, MCP-1, TNF-α) and IL-6 using the PrimePCR RNA purification and cDNA analysis system, and run on the CFX96 gene cycler (BioRad)."}, "[4]": {"test_system": "STING pathway (TBK1, IRF3 phosphorylation)", "test": "Western blot of pTBK1 and pIRF3 in macrophages and BM-DCs after STING agonist", "assay_type": "cell-based, mouse", "conditions": "WT macrophages; DMXAA 50 μg/ml or ML RR-S2 CDA 50 μM", "procedure": "DMXAA for the same time-points. Proteins were extracted with Triton-X buffer (150 mM sodium chloride, 50 mM Tris, 1% Triton-X, pH 8.0) with proteinase inhibitors (Thermo scientific) and phosphatase inhibitors (Sigma). 30 μg of protein was electrophoresed in 10% SDS-PAGE gels and transferred onto Immobilon-FL membranes (Millipore). Blots were incubated with antibodies specific for phosphorylated TBK1 (Ser172), phosphorylated IRF3 (Ser396), total TBK1, STING and GAPDH (Cell Signaling) or total IRF3 (Invitrogen). Proteins from HEK 293T lines stably expressing STING were extracted with M-PER (Thermo Scientific). 6 μg of protein was loaded onto a 4-12% MES NuPAGE gel (Life Technologies), transferred to nitrocellulose, and probed with anti-HA antibody (Santa Cruz). Anti-rabbit IRDye 680RD label secondary antibody was used for visualization of bands with the Odyssey Imaging system (LI-COR)."}, "B16.F10 tumors": {"test_system": "B16.F10 tumors", "test": "Intratumoral treatment of established B16.F10 tumors", "assay_type": "in vivo, mouse", "conditions": "for injection site reactogenicity: three IT injections; for effect on tumor growth: WT C57BL/6 mice, three IT injections over a one-week period", "procedure": "as §2"}, "B16.F10 lung metastases": {"test_system": "B16.F10 lung metastases", "test": "B16 melanoma lung metastasis experiment", "assay_type": "in vivo, mouse", "conditions": "flank tumor treated IT, ML RR-S2 CDA 50 μg versus DMXAA 150 μg", "procedure": "as §2"}, "[5]": {"conditions": "BALB/c mice, three IT doses of 50 μg"}, "[6]": {"conditions": "bilateral tumors, IT injection into one tumor"}, "[7]": {"conditions": "mice cured of their primary tumor"}}, "data": [{"compound": "Nc1ncnc2c1ncn2[C@@H]1O[C@@H]2COP(=O)(O)O[C@H]3[C@@H](O)[C@H](n4cnc5c(N)ncnc54)O[C@@H]3COP(=O)(O)O[C@H]2[C@H]1O", "note": "[CDA]", "values": [{"measurement": "IFN-β reporter responsiveness", "setting": "hSTING^REF", "value": "responded poorly"}]}, {"compound": "Nc1nc2c(ncn2[C@@H]2O[C@@H]3COP(=O)(O)O[C@H]4[C@@H](O)[C@H](n5cnc6c(=O)[nH]c(N)nc65)O[C@@H]4COP(=O)(O)O[C@H]3[C@H]2O)c(=O)[nH]1", "note": "[CDG]", "values": [{"measurement": "IFN-β reporter responsiveness", "setting": "hSTING^REF", "value": "responded poorly"}]}, {"compound": "Nc1ncnc2c1ncn2[C@@H]1O[C@@H]2COP(O)(=S)O[C@@H]3C(O)[C@@H](COP(O)(=S)O[C@H]2[C@H]1O)O[C@H]3n1cnc2c(N)ncnc21", "note": "(stereo partly shown) [ML RR-S2 CDA, dithio-(Rp, Rp)-[cyclic[A(2′,5′)pA(3′,5′)p]]]", "values": [{"measurement": "immune responses against AH1 (IFN-γ ELISPOT)", "setting": "[1]", "value": "improved immune responses"}, {"measurement": "IFN-β reporter activation", "setting": "[2]", "value": "potently activated all five hSTING alleles"}, {"measurement": "tumor regression", "setting": "CT26 colon carcinoma; [5]", "value": "significant and durable tumor regression"}, {"measurement": "regression of the contralateral untreated tumor", "setting": "CT26 colon carcinoma; [6]", "value": "significant regression of the contralateral untreated tumor"}, {"measurement": "resistance to re-challenge", "setting": "CT26 colon carcinoma; [7]", "value": "completely resistant to re-challenge"}, {"measurement": "tumor regression", "setting": "4T-1 tumors; [5]", "value": "significant and durable tumor regression"}, {"measurement": "regression of the contralateral untreated tumor", "setting": "4T-1 tumors; [6]", "value": "significant regression of the contralateral untreated tumor"}, {"measurement": "resistance to re-challenge", "setting": "4T-1 tumors; [7]", "value": "completely resistant to re-challenge"}, {"measurement": "expression of pro-inflammatory cytokines (IFN-β)", "setting": "[3]", "value": "highest expression of pro-inflammatory cytokines"}, {"measurement": "phosphorylation of TBK1 and IRF3", "setting": "[4]", "value": "induce phosphorylation of TBK1 and IRF3"}, {"measurement": "potency compared to CpG-based TLR9 agonists and multiple other TLR agonists", "setting": "B16.F10 tumors; given IT at the same doses (50 μg)", "value": "significantly increased potency"}, {"measurement": "injection site reactogenicity", "setting": "B16.F10 tumors", "value": "no injection site reactogenicity"}, {"measurement": "inhibition of growth of distant lung metastases", "setting": "B16.F10 lung metastases", "value": "more significant inhibition of growth of distant lung metastases than DMXAA"}]}, {"compound": "Nc1nc2c(ncn2[C@@H]2O[C@@H]3CO[P@@](=O)(S)O[C@@H]4[C@H](O)[C@@H](CO[P@@](=O)(S)O[C@H]3[C@H]2O)O[C@H]4n2cnc3c(=O)[nH]c(N)nc32)c(=O)[nH]1", "note": "[ML RR-S2 CDG]", "values": [{"measurement": "IFN-β reporter activation", "setting": "[2]", "value": "potently activated all five hSTING alleles"}, {"measurement": "expression of pro-inflammatory cytokines (IFN-β)", "setting": "[3]", "value": "highest expression of pro-inflammatory cytokines"}, {"measurement": "efficacy at lower dose levels", "setting": "B16.F10 tumors; lower dose levels", "value": "not efficacious"}, {"measurement": "therapeutic index", "setting": "B16.F10 tumors; mouse, in vivo", "value": "narrow therapeutic index"}, {"measurement": "injection site reactogenicity", "setting": "B16.F10 tumors", "value": "reactogenic"}]}, {"compound": "Nc1ncnc2c1ncn2C1OC2COP(=O)(O)OC3C(O)C(COP(=O)(O)OC2C1O)OC3n1cnc2c(N)ncnc21", "note": "(stereo not shown) [ML-CDA]", "values": [{"measurement": "effect on tumor growth", "setting": "B16.F10 tumors", "value": "modest effects on tumor growth"}]}, {"compound": "Nc1nc2c(ncn2C2OC3COP(=O)(O)OC4C(O)C(COP(=O)(O)OC3C2O)OC4n2cnc3c(=O)[nH]c(N)nc32)c(=O)[nH]1", "note": "(stereo not shown) [ML-CDG]", "values": [{"measurement": "effect on tumor growth", "setting": "B16.F10 tumors", "value": "modest effects on tumor growth"}]}]}
